According to ChEMBL document CHEMBL1201862, “PubChem BioAssay data set” (2004):
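How tested: cells in 96-well plates exposed to compound for 48 hours at five concentrations. GI50 is the concentration that inhibits growth by half.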 Activity calls are given as the source filed them. No stated cut-off is given here; in the data, active = GI50 up to about 1.1 µM and inactive = higher.

Legend:
Test in all cases: NCI-60 cell line screen, 48 h
[1] = test system: DLD-1
[2] = test system: HOP-18
[3] = test system: KM-20L2
[4] = test system: LXFL 529
[5] = test system: M19-MEL
[6] = test system: RXF 631
[7] = test system: SNB-78
[8] = test system: XF498
[9] = test system: Hs-578T

Measured: GI50

CN(C)CCn1c2c3ccccc3ccc2c2oc(=O)c3ccccc3c21
inactive: [1] 5.11 µM | [2] 16.1 µM | [3] 7.08 µM | [4] 4.98 µM | [5] 5.46 µM | [6] 4.53 µM | [7] 19.7 µM | [8] 15.3 µM

CCCc1n[nH]c(CCC(=O)N(Cc2ccccc2)Cc2ccccc2)c1CC
inactive: [1] > 100 µM | [2] > 100 µM | [3] > 100 µM | [4] > 100 µM | [5] > 100 µM | [6] > 100 µM | [8] > 100 µM

CN(CCCN1C(=O)c2cccc3cc([N+](=O)[O-])cc(c23)C1=O)CCN(C)CCCN1C(=O)c2cccc3cc([N+](=O)[O-])cc(c23)C1=O
inactive: [2] > 39.3 µM | [3] > 39.3 µM | [4] 2.45 µM | [5] 18.2 µM | [6] > 39.3 µM | [7] > 39.3 µM | [8] > 39.3 µM

COc1ccc(/C=C/c2cc(OC)c(OC(C)=O)c(OC)c2)cc1
inactive: [1] 29.9 µM | [3] 35.1 µM | [4] 27.5 µM | [5] 30.1 µM | [6] 36.1 µM | [7] 22 µM | [8] 34.5 µM

Cc1ccc2c(c1)SC(c1cc3c(cc1Br)OCO3)S2 (stereo not drawn)
inactive: [1] > 31.6 µM | [2] > 31.6 µM | [3] 26.1 µM | [4] > 31.6 µM | [5] 28.6 µM | [6] > 10 µM | [7] > 31.6 µM | [8] > 100 µM

COc1ccc2c[n+](C)c3c4cc(OC)c(OC)cc4ccc3c2c1
inactive: [1] 10.8 µM | [2] 28.6 µM | [9] 2.6 µM | [3] 3.52 µM | [4] 1.21 µM | [5] 12.4 µM | [6] 15.5 µM | [7] 12.2 µM | [8] 9.84 µM

COC(=O)[C@@H]1C(=O)O[C@@H](c2cc(OC)c(OC)cc2OC)[C@@H]1C(=O)OC.COC(=O)[C@H]1C(=O)O[C@@H](c2cc(OC)c(OC)cc2OC)[C@@H]1C(=O)OC
inactive: [1] > 100 µM | [3] > 100 µM | [4] > 100 µM | [5] > 100 µM | [6] > 100 µM | [7] > 100 µM | [8] > 100 µM

c1ccc2c(c1)Cc1c(Cc3csc4ccccc34)ccc3cccc-2c13
inactive: [1] > 100 µM | [3] > 100 µM | [4] > 100 µM | [5] > 100 µM | [6] > 100 µM | [7] 94.4 µM | [8] > 100 µM

CCOC(=O)C12CCCC1(O)N(NC(=O)OC(C)(C)C)C(C)=C2C(=O)OC (stereo not drawn)
inactive: [1] > 100 µM | [2] > 100 µM | [3] > 100 µM | [4] > 100 µM | [5] > 100 µM | [6] > 100 µM | [7] > 100 µM | [8] > 100 µM
